According to article PMC13198257, “An aerosolized dual-action autotaxin inhibitor-PPARγ agonist for the treatment of pulmonary fibrosis” (Cell Reports Medicine, 2026):

Test system: lung gene expression
Assay: RNA sequencing of lung tissue (BLM/EL244 vs BLM)
Format: in vivo, mouse
Experimental: RNA quality was assessed using an Agilent TapeStation 4150 with the High Sensitivity […] ScreenTape (Agilent), according to the manufacturer’s protocols. For library preparation, the QuantSeq 3’mRNA-Seq Library Prep Kit (Lexogen) was used according to manufacturer’s instructions. Briefly, 500 ng of RNA from each sample was used for first-strand synthesis, followed by RNA template removal, and second-strand synthesis initiated by random primers. In-line barcodes were introduced at this step, and this was followed by magnetic bead-based purification. The resulting libraries were amplified for 15 cycles and re-purified, with quantity and quality assessed on a Qubit 4 Fluorometer with the Invitrogen Qubit dsDNA HS Assay and an Agilent Tapestation 4150 with the High Sensitivity D1000 assay kit, respectively. The quantified libraries were pooled equimolarly; 50ng of total library mix was used for Adapter Conversion PCR Amplification using the Universal Library Conversion Kit (App-A), Version: V1.0 (MGI Tech Co., Ltd.), according to the manufacturer’s instructions.
The quantity and quality of the purified adapter conversion PCR (AC-PCR) product were evaluated on a Qubit 4 Fluorometer with the Invitrogen Qubit dsDNA HS Assay and on an Agilent Tapestation 4150 with the High Sensitivity D1000 assay kit, respectively. This was followed by DNA denaturation, Single-Strand Circularisation, Enzymatic Digestion, Enzymatic Digestion Product Cleanup and Quality Control steps on 1 pmol of AC-PCR product, according to the Universal Library Conversion Kit (App-A) User Manual (Version: A3).
Finally, 60 fmol of ssCirDNA were used for DNB preparation and sequencing on a DNBSEQ-G400 platform at the BSRC Alexander Fleming Genomics Facility, using a G400 App-A FCS SE100 High-throughput Sequencing Set (MGI Tech Co., Ltd.), according to the manufacturer’s instructions.
Alignment of the FASTQ files was performed against the mouse genome build mm10 using a custom Bash script.[143] Read counting on the 3′ UTRs and differential expression analysis were conducted using the metaseqR2 bioconductor package.[144] Genes corresponding to the following biotypes were excluded: polymorphic_pseudogene, processed_transcript, pseudogene, IG_V_pseudogene, misc_RNA, IG_C_gene, IG_J_gene, IG_D_gene, IG_LV_gene, TR_V_gene, TR_V_pseudogene, TEC, and processed_pseudogene. Gene counts were normalized with DESEQ[145] through metaseqR2. Genes with more than 10 counts in at least 50% of the samples were kept for further processing. For differential expression analysis, the PANDORA algorithm[146] was used to estimate a meta p-value integrating the results from the DESEQ, DESEQ2,[147] edgeR,[148] limma,[149] NBPSeq,[150] and NOISeq[151] algorithms. All additional parameters were set to default values.
Pathway enrichment analysis was performed for the Gene Ontology Biological process (BP) and Molecular Function (MF) terms through GeneCodis 4.[152] The volcano plots, scatterplots, Venn diagrams, and dot plots were generated using the ggplot2 Bioconductor package.

## O=C1NC(=O)C(Cc2ccc(OCCC3CCN(C(=O)OCc4cc(Cl)cc(Cl)c4)CC3)cc2)S1 (stereo not drawn) [EL244, 3,5-dichlorobenzyl 4-(2-(4-((2,4-dioxothiazolidin-5-yl)methyl)phenoxy)ethyl)piperidine-1-carboxylate]
DEG Igfbp3, nFC: normalised fold change
  Igfbp3 log2 nFC BLM/EL244 vs BLM: 1.75
DEG Igfbp6, nFC: normalised fold change
  Igfbp6 log2 nFC BLM/EL244 vs BLM: 1.68
DEG Il6ra, nFC: normalised fold change
  Il6ra log2 nFC BLM/EL244 vs BLM: 0.84
DEG Ildr2
  log2 nFC BLM/EL244 vs BLM: -1.32
DEG Inmt, nFC: normalised fold change
  Inmt log2 nFC BLM/EL244 vs BLM: 1.34
DEG Iqca, nFC: normalised fold change
  Iqca log2 nFC BLM/EL244 vs BLM: 0.87
DEG Iqgap3
  log2 nFC BLM/EL244 vs BLM: -2.41
DEG Itga2b, nFC: normalised fold change
  Itga2b log2 nFC BLM/EL244 vs BLM: 1.10
DEG Itga8, nFC: normalised fold change
  Itga8 log2 nFC BLM/EL244 vs BLM: 0.88
DEG Itm2a
  log2 nFC BLM/EL244 vs BLM: -1.25
DEG Jdp2, nFC: normalised fold change
  Jdp2 log2 nFC BLM/EL244 vs BLM: 0.71
DEG Kcne2, nFC: normalised fold change
  Kcne2 log2 nFC BLM/EL244 vs BLM: 1.32
DEG Kcnn4
  log2 nFC BLM/EL244 vs BLM: -1.27
DEG Kdelr3
  log2 nFC BLM/EL244 vs BLM: -1.25
DEG Kif14
  log2 nFC BLM/EL244 vs BLM: -1.56
DEG Kif20a
  log2 nFC BLM/EL244 vs BLM: -2.52
DEG Klf3, nFC: normalised fold change
  Klf3 log2 nFC BLM/EL244 vs BLM: 0.69
DEG Klf4, nFC: normalised fold change
  Klf4 log2 nFC BLM/EL244 vs BLM: 0.72
DEG Klf9, nFC: normalised fold change
  Klf9 log2 nFC BLM/EL244 vs BLM: 0.85
DEG Klf15, nFC: normalised fold change
  Klf15 log2 nFC BLM/EL244 vs BLM: 1.42
DEG Klrc1, nFC: normalised fold change
  Klrc1 log2 nFC BLM/EL244 vs BLM: 1.38
DEG Kndc1, nFC: normalised fold change
  Kndc1 log2 nFC BLM/EL244 vs BLM: 1.05
DEG Knstrn
  log2 nFC BLM/EL244 vs BLM: -2.52
DEG Kntc1
  log2 nFC BLM/EL244 vs BLM: -1.39
DEG Krt79, nFC: normalised fold change
  Krt79 log2 nFC BLM/EL244 vs BLM: 1.75
DEG Lama1
  log2 nFC BLM/EL244 vs BLM: -2.43
DEG Ldb3, nFC: normalised fold change
  Ldb3 log2 nFC BLM/EL244 vs BLM: 1.52
DEG Lncpint, nFC: normalised fold change
  Lncpint log2 nFC BLM/EL244 vs BLM: 1.06
DEG Lrat, nFC: normalised fold change
  Lrat log2 nFC BLM/EL244 vs BLM: 1.15
DEG Lrrc74b, nFC: normalised fold change
  Lrrc74b log2 nFC BLM/EL244 vs BLM: 1.02
DEG Ltbp2
  log2 nFC BLM/EL244 vs BLM: -1.44
DEG Ltbp4, nFC: normalised fold change
  Ltbp4 log2 nFC BLM/EL244 vs BLM: 0.81
DEG Lum
  log2 nFC BLM/EL244 vs BLM: -1.32
DEG Lyve1, nFC: normalised fold change
  Lyve1 log2 nFC BLM/EL244 vs BLM: 0.96
DEG Map3k6, nFC: normalised fold change
  Map3k6 log2 nFC BLM/EL244 vs BLM: 0.95
DEG Mapt, nFC: normalised fold change
  Mapt log2 nFC BLM/EL244 vs BLM: 0.89
DEG Mark1
  log2 nFC BLM/EL244 vs BLM: -1.23
DEG Matk
  log2 nFC BLM/EL244 vs BLM: -1.42
DEG Mb, nFC: normalised fold change
  Mb log2 nFC BLM/EL244 vs BLM: 2.27
DEG Mcf2l, nFC: normalised fold change
  Mcf2l log2 nFC BLM/EL244 vs BLM: 0.95
DEG Mcm5
  log2 nFC BLM/EL244 vs BLM: -1.33
DEG Mdk
  log2 nFC BLM/EL244 vs BLM: -1.34
DEG Mettl7a1, nFC: normalised fold change
  Mettl7a1 log2 nFC BLM/EL244 vs BLM: 0.80
DEG Mir29c, nFC: normalised fold change
  Mir29c log2 nFC BLM/EL244 vs BLM: 0.89
DEG Mir147
  log2 nFC BLM/EL244 vs BLM: -1.44
DEG Mir6899, nFC: normalised fold change
  Mir6899 log2 nFC BLM/EL244 vs BLM: 0.84
DEG Mir6979, nFC: normalised fold change
  Mir6979 log2 nFC BLM/EL244 vs BLM: 1.18
DEG Mis18bp1
  log2 nFC BLM/EL244 vs BLM: -1.46
DEG Mmp9, nFC: normalised fold change
  Mmp9 log2 nFC BLM/EL244 vs BLM: 1.20
DEG Mmp12
  log2 nFC BLM/EL244 vs BLM: -2.48
DEG Mmp14
  log2 nFC BLM/EL244 vs BLM: -1.31
DEG Mpp3, nFC: normalised fold change
  Mpp3 log2 nFC BLM/EL244 vs BLM: 1.65
DEG Ms4a7
  log2 nFC BLM/EL244 vs BLM: -1.49
DEG Ms4a4d, nFC: normalised fold change
  Ms4a4d log2 nFC BLM/EL244 vs BLM: 1.15
DEG Msr1
  log2 nFC BLM/EL244 vs BLM: -1.44
DEG Mybpc3, nFC: normalised fold change
  Mybpc3 log2 nFC BLM/EL244 vs BLM: 2.06
DEG Mybphl, nFC: normalised fold change
  Mybphl log2 nFC BLM/EL244 vs BLM: 2.33
